Experimental data as given in ChEMBL document CHEMBL1157405, “ent-Kaurane diterpenoids from Isodon japonicus” (J Nat Prod, 2008).
pIC50: −log10 of the molar value.

system: RAW264.7; assay: Inhibition of LPS-induced nitric oxide production in mouse RAW264.7 cells assessed as nitrite formation; assay type: functional, cell-based

Q: With `C=C1C(=O)[C@]23C[C@H]1CC[C@H]2[C@]1(COC3=O)[C@@H](OC(C)=O)CC[C@@](C)(COC(C)=O)[C@H]1C=O` as the compound, how does the pIC50 read?
A: 4.69

Q: How did the pIC50 turn out when `C=C1C(=O)[C@]23[C@@H](O)[C@H]1CC[C@H]2[C@@]12COC3(O)C[C@@H]1C(C)(C)CC[C@@H]2O` was run?
A: 5.07

Q: How did the pIC50 turn out when `C=C1C(=O)[C@]23C[C@H]1CC[C@H]2[C@@]12CO[C@@]3(O)[C@@H](O)[C@@H]1[C@](C)(COC(C)=O)CC[C@@H]2O` was run?
A: 5.23

Q: `C=C1C(=O)[C@]23[C@H](O)[C@H]1CC[C@H]2[C@@]12CO[C@@]3(O)[C@@H](O)[C@@H]1[C@](C)(COC(C)=O)CC[C@@H]2OC(C)=O` [ISODOJAPONIN A] was tested. Which pIC50 did it give?
A: 5.20

Q: How did the pIC50 turn out when `C=C1C(=O)[C@]23C[C@H]1CC[C@H]2[C@]1(COC3=O)[C@@H](OC(C)=O)CC[C@@](C)(CO)[C@H]1COC(C)=O` was run?
A: 5.06

Q: With `C=C1C(=O)[C@]23[C@H](O)[C@H]1CC[C@H]2[C@@]12CO[C@@]3(O)[C@@H](O)[C@@H]1C(C)(C)CC[C@@H]2OC(C)=O` [LASIOKAURIN] as the compound, how does the pIC50 read?
A: 5.80

Q: `C=C1C(=O)[C@]23C[C@H]1C[C@@H](O)[C@H]2[C@]12CCC[C@@](C)(COC(C)=O)[C@H]1[C@H](O)[C@]3(O)OC2` [LONGIKAURIN D] was tested. Which pIC50 did it give?
A: 5.70

Q: `C=C1C(=O)[C@@]23[C@H](O)C[C@@H]4C(C)(C)[C@@H](OC(C)=O)CC[C@@]4(C)[C@@H]2CC(=O)[C@@H]1[C@H]3O` [PSEURATA C] was tested. Which pIC50 did it give?
A: 5.27

Q: `C=C1C(=O)[C@]23[C@H](O)[C@H]1CC[C@H]2[C@]12CCC[C@@](C)(COC(C)=O)[C@H]1[C@H](O)[C@]3(O)OC2` [LONGIKAURIN B] was tested. Which pIC50 did it give?
A: 6.05

Q: How did the pIC50 turn out when `C=C1C(=O)[C@]23C[C@H]1CC[C@H]2[C@@]12CO[C@]3(O)[C@@H](O)[C@@H]1[C@](C)(COC(C)=O)CC[C@@H]2OC(C)=O` [EFFUSANIN D] was run?
A: 5.48

Q: With `C=C1C(=O)[C@@]23[C@H](O)C[C@@H]4C(C)(C)CC[C@H](O)[C@@]4(C)[C@@H]2C[C@H](OC(C)=O)[C@@H]1[C@H]3O` [EXCISANIN B] as the compound, how does the pIC50 read?
A: 5.48

Q: `C=C1C(=O)[C@]23C[C@H]1CC[C@H]2[C@]12CCC[C@@](C)(COC(C)=O)[C@H]1[C@H](O)[C@]3(O)OC2` [LONGIKAURIN C] was tested. Which pIC50 did it give?
A: 6.00

Q: With `C=C1C(=O)[C@]23C[C@H]1CC[C@H]2[C@]1(COC3=O)[C@@H](OC(C)=O)CC[C@@](C)(COC(C)=O)[C@H]1CO` as the compound, how does the pIC50 read?
A: 5.09

Q: With `C=C1C(=O)[C@]23C[C@H]1C[C@@H](OC(C)=O)[C@H]2[C@@]12CO[C@@]3(O)[C@@H](O)[C@@H]1[C@](C)(COC(C)=O)CC[C@@H]2O` as the compound, how does the pIC50 read?
A: 4.99

Q: How did the pIC50 turn out when `C=C1C(=O)[C@]23C[C@H]1C[C@@H](O)[C@H]2[C@]1(COC3=O)[C@@H](OC(C)=O)CC[C@@](C)(COC(C)=O)[C@H]1C=O` [LOXOTHYRIN A] was run?
A: 4.62
